# According to ChEMBL document CHEMBL5260810, “Inhibition of bromodomain-containing protein 9 for the prevention of epigenetically-defined drug resistance” (Bioorg Med Chem Lett, 2017):
# Columns and labels:
# [1] = target: T1, Muscarinic acetylcholine receptor M1 (Homo sapiens) (UniProt P11229); test: Displacement of [125I]pirenzepine from human recombinant M1 receptor at 10 uM after 60 mins by scintillation counting analysis relative to control
# T1 sequence (whole entry): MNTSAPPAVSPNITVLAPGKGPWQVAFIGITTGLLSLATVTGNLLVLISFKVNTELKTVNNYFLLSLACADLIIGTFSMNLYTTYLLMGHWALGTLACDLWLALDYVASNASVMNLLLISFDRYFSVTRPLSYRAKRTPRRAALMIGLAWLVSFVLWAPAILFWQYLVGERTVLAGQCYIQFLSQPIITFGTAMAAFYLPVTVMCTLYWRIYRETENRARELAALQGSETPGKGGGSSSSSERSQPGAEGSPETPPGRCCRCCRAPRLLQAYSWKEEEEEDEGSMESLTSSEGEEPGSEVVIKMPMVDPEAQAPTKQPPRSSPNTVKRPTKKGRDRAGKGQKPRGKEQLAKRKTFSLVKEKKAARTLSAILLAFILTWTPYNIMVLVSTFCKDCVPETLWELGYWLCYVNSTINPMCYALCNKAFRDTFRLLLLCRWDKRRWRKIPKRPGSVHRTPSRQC
# [2] = target: T2, Bromodomain testis-specific protein (Homo sapiens, UniProt Q58F21); test: Binding affinity to human partial length BRDT bromodomain 2 (K250 to E382 residues) expressed in bacterial expression system by BROMOscan assay
# [3] = target: Proto-oncogene tyrosine-protein kinase receptor Ret (Homo sapiens) (UniProt P07949); test: Inhibition of Ret (unknown origin) at 1 uM relative to control
# Chain of Proto-oncogene tyrosine-protein kinase receptor Ret (Homo sapiens) (P07949 whole entry): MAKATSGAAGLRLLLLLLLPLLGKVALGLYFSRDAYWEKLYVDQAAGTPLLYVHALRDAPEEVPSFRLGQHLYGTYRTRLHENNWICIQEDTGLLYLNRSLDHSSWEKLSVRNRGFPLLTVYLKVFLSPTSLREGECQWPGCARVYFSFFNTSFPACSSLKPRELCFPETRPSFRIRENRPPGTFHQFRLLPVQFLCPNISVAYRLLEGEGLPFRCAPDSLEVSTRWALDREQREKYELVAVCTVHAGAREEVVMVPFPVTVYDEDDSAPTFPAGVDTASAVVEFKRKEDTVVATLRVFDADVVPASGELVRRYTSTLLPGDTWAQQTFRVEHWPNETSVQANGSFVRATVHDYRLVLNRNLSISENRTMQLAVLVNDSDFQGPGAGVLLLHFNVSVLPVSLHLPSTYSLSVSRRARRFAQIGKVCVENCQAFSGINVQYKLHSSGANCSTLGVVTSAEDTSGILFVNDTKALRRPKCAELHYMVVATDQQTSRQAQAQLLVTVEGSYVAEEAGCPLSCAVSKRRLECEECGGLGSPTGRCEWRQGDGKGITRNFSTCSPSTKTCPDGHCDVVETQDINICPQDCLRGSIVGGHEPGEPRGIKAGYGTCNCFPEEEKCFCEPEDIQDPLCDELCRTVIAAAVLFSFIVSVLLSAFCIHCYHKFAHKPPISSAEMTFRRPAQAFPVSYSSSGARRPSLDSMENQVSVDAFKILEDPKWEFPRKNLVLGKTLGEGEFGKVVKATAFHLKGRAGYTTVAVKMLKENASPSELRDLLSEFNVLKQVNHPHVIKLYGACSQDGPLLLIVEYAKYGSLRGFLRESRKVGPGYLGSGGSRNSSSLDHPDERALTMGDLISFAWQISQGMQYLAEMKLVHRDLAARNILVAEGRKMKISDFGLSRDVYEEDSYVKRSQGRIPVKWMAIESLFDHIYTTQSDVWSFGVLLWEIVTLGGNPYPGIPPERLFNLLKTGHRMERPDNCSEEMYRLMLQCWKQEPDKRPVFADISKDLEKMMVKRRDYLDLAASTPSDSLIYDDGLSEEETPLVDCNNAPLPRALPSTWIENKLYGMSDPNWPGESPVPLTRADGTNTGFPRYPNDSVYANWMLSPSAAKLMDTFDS
# [4] = Cytotoxicity against human NCE-G 111 cells measured after 8 days; type: functional, cell-based; settings: NCE-G 111, 192 h
# [5] = target: T2, Bromodomain testis-specific protein; test: Binding affinity to human partial length BRDT bromodomain 1 (N21 to E137 residues) expressed in bacterial expression system by BROMOscan assay
# HCT-116 = test: Cytotoxicity against human HCT-116 cells measured after 8 days; type: functional, cell-based; settings: HCT-116, 192 h
# [6] = Cytotoxicity against human KPL-4 cells measured after 8 days; type: functional, cell-based; settings: KPL4, 192 h
# DLD-1 = test: Cytotoxicity against human DLD-1 cells measured after 8 days; type: functional, cell-based; settings: DLD-1, 192 h
# CA46 = test: Cytotoxicity against human CA46 cells measured after 8 days; type: functional, cell-based; settings: CA46, 192 h
# COLO-741 = test: Cytotoxicity against human COLO-741 cells measured after 8 days; type: functional, cell-based; settings: COLO-741, 192 h
# [7] = Cytotoxicity against human OCUM-1 cells measured after 8 days; type: functional, cell-based; settings: OCUM1, 192 h
# [8] = target: Serine/threonine-protein kinase SIK2 (Homo sapiens) (UniProt Q9H0K1); test: Inhibition of SIK2 (unknown origin) at 1 uM relative to control
# Chain of Serine/threonine-protein kinase SIK2 (Homo sapiens) (Q9H0K1 whole entry, looked up): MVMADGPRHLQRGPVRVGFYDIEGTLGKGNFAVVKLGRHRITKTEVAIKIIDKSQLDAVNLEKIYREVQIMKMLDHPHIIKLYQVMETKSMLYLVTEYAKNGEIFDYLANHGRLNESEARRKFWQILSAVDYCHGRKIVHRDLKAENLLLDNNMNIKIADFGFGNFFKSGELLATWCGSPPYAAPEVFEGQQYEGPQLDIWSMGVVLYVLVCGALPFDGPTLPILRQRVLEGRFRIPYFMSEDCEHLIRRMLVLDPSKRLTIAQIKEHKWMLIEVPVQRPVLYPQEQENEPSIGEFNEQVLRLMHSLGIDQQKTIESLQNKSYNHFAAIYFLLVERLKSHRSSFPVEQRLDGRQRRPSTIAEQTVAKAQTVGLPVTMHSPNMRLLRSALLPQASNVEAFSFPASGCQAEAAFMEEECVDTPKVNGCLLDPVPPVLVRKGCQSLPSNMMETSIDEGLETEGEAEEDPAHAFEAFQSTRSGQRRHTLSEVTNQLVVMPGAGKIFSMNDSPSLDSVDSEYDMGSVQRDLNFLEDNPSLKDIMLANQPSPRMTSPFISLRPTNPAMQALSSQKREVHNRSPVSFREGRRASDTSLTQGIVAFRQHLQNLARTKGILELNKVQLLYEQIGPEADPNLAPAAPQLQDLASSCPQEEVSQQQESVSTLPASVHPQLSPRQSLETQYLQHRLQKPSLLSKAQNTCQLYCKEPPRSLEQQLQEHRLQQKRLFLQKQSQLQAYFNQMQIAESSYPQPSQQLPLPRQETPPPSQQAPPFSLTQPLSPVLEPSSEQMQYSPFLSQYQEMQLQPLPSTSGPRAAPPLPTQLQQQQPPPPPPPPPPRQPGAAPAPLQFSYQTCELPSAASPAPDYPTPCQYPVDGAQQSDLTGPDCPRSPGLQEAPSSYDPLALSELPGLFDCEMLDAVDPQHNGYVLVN
# NCI-H28 = test: Cytotoxicity against human NCI-H28 cells measured after 8 days; type: functional, cell-based; settings: NCI-H28, 192 h
# [9] = Cytotoxicity against human KMM-1 cells measured after 8 days; type: functional, cell-based; settings: KMM-1, 192 h
# NCI-H647 = test: Cytotoxicity against human NCI-H647 cells measured after 8 days; type: functional, cell-based; settings: NCI-H647, 192 h
# NCI-H2347 = test: Cytotoxicity against human NCI-H2347 cells measured after 8 days; type: functional, cell-based; settings: NCI-H2347, 192 h
# [10] = Cytotoxicity against human KMS-27 cells measured after 8 days; type: functional, cell-based; settings: KMS-27, 192 h
# NAMALVA = test: Cytotoxicity against human NAMALVA cells measured after 8 days; type: functional, cell-based; settings: 192 h
# OPM-2 = test: Cytotoxicity against human OPM-2 cells measured after 8 days; type: functional, cell-based; settings: OPM-2, 192 h
# HCC515 = test: Cytotoxicity against human HCC515 cells measured after 8 days; type: functional, cell-based; settings: HCC515, 192 h
# Rattus norvegicus = species on record: Rattus norvegicus; test: Displacement of [3H]batrachotoxinin from rat brain sodium voltage gated ion channel site 2 at 10 uM after 60 mins by scintillation counting analysis relative to control
# [11] = target: Histamine H1 receptor (Homo sapiens) (UniProt P35367); test: Displacement of [3H]pyrilamine from human recombinant histamine H1 receptor at 10 uM after 60 mins by scintillation counting analysis relative to control
# Chain of Histamine H1 receptor (Homo sapiens) (P35367 whole entry, the tested form may be a part): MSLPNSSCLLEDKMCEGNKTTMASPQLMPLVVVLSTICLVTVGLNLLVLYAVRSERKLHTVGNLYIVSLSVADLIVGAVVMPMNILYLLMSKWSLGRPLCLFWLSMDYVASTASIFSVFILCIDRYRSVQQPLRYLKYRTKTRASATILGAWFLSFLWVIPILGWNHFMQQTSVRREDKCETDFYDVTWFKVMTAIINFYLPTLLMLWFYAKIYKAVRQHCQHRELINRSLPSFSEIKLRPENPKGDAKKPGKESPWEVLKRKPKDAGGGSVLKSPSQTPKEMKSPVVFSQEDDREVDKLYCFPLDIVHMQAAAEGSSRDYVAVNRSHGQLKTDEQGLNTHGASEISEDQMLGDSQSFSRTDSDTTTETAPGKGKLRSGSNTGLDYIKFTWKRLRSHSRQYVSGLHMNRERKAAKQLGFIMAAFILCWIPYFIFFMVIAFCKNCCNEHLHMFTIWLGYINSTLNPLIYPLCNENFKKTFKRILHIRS
# [12] = target: Histone acetyltransferase KAT2B (Homo sapiens, UniProt Q92831); test: Binding affinity to human partial length PCAF (G715 to D831 residues) expressed in bacterial expression system by BROMOscan assay
# Chain of Histone acetyltransferase KAT2B (Q92831 whole entry, the tested form may be a part): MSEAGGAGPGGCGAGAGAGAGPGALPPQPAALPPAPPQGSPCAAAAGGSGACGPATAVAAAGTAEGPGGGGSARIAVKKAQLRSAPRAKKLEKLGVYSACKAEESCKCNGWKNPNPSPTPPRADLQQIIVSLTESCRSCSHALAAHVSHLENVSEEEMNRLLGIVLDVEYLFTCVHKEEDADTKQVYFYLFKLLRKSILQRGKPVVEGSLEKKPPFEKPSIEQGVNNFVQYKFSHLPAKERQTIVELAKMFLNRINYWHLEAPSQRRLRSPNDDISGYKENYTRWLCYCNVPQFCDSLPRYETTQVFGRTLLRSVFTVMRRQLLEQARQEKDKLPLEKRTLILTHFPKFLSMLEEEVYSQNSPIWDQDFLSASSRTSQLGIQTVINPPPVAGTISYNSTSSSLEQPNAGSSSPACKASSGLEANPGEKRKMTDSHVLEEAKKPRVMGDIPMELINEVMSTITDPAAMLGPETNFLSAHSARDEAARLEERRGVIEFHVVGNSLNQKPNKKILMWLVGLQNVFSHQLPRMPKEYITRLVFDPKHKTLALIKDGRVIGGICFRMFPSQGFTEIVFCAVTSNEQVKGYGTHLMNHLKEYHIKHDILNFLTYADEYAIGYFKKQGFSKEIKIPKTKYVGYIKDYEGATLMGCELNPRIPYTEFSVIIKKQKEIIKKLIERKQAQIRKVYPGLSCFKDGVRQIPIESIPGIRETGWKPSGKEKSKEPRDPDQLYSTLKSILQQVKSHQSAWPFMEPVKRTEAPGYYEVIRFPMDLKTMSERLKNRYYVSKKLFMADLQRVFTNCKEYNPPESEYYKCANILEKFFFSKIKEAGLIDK
# DV-90 = test: Cytotoxicity against human DV-90 cells measured after 8 days; type: functional, cell-based; settings: DV-90, 192 h
# [13] = Cytotoxicity against human NCI-H2023 cells measured after 8 days; type: functional, cell-based; settings: NCI-H2023, 192 h
# [14] = target: T3, 5-hydroxytryptamine receptor 1A (Homo sapiens) (UniProt P08908); test: Displacement of [3H]8-OH-DPAT from recombinant human 5-HT1A receptor at 10 uM after 60 mins by scintillation counting analysis relative to control
# T3 sequence (whole entry): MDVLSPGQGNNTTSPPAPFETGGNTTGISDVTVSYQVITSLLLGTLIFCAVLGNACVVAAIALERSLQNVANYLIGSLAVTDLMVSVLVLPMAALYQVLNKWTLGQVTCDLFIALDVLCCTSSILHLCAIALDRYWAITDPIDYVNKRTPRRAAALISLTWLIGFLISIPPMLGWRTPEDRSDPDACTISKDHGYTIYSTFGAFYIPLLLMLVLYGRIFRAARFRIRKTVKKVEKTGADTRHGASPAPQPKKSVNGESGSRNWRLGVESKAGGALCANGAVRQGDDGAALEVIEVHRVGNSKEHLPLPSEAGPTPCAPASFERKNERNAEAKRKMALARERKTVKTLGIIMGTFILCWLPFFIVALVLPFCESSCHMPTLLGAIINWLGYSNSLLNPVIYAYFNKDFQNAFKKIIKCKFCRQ
# BJAB = test: Cytotoxicity against human BJAB cells measured after 8 days; type: functional, cell-based; settings: 192 h
# LCLC-103H cell line = test: Cytotoxicity against human LCLC-103H cell line measured after 8 days; type: functional, cell-based; settings: 192 h
# Protein polybromo-1 = Protein polybromo-1 (Homo sapiens, UniProt Q86U86); test: Binding affinity to human partial length PBRM1 bromodomain 1 (S178 to E291 residues) expressed in bacterial expression system by BROMOscan assay
# Chain of Protein polybromo-1 (Q86U86 whole entry, the tested form may be a part): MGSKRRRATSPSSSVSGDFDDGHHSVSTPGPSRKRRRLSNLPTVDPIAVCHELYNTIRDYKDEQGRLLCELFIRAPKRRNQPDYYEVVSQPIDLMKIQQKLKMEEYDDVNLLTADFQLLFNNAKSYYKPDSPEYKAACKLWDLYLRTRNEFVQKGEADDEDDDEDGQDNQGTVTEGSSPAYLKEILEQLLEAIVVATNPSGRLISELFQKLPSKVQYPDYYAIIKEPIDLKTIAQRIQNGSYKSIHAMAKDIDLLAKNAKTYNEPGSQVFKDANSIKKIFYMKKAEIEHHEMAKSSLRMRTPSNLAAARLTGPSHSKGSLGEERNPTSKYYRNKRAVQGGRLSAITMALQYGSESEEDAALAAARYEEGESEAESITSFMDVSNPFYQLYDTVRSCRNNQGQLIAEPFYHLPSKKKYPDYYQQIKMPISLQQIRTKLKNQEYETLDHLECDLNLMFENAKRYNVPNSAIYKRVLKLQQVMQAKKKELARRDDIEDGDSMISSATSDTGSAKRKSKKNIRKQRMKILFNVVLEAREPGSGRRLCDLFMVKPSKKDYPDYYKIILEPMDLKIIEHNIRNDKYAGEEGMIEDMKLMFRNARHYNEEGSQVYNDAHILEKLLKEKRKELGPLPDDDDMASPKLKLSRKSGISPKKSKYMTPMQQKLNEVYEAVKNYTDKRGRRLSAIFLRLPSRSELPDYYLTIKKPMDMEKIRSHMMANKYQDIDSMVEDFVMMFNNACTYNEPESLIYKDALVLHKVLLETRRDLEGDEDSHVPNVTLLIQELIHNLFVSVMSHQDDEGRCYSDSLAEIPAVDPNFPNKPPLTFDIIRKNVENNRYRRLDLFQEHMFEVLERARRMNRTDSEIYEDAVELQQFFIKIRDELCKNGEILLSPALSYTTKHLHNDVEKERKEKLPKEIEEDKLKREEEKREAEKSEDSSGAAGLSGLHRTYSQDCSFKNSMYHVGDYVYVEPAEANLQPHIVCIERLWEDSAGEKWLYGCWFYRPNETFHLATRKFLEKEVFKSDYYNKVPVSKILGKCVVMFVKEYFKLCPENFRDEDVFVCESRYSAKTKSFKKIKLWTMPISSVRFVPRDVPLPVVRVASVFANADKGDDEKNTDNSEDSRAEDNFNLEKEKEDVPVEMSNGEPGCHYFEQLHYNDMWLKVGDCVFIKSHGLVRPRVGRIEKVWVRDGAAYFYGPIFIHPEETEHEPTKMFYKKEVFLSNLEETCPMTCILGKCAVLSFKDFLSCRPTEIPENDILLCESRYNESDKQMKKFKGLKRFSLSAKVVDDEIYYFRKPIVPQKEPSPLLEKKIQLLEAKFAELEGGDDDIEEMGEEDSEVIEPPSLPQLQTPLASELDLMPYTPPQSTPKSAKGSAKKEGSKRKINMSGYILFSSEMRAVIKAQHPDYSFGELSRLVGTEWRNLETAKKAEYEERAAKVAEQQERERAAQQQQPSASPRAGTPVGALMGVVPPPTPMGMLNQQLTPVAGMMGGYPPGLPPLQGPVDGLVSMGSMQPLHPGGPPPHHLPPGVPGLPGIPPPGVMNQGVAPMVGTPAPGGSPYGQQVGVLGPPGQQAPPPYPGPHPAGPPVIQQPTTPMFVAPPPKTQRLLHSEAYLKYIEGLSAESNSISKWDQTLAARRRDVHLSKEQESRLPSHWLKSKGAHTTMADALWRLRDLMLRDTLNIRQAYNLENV
# Homo sapiens = species on record: Homo sapiens; test: Inhibition of JAK1alpha1 (unknown origin) at 1 uM relative to control
# CAL-51 = test: Cytotoxicity against human CAL-51 cells measured after 8 days; type: functional, cell-based; settings: CAL-51, 192 h
# IGR-37 cell line = test: Cytotoxicity against human IGR-37 cell line measured after 8 days; type: functional, cell-based; settings: IGR-37, 192 h
# COLO 205 = test: Cytotoxicity against human COLO 205 cells measured after 8 days; type: functional, cell-based; settings: COLO 205, 192 h
# CAL-12T = test: Cytotoxicity against human CAL-12T cells measured after 8 days; type: functional, cell-based; settings: 192 h
# UMC-11 = test: Cytotoxicity against human UMC-11 cells measured after 8 days; type: functional, cell-based; settings: UMC-11, 192 h
# [15] = Cytotoxicity against human MOR cells measured after 8 days; type: functional, cell-based; settings: 192 h
Compound,Activity [1],Kd [2],inhibition [3],IC50 [4],Kd [5],IC50 (HCT-116),IC50 [6],IC50 (DLD-1),IC50 (CA46),IC50 (COLO-741),IC50 [7],inhibition [8],IC50 (NCI-H28),IC50 [9],IC50 (NCI-H647),IC50 (NCI-H2347),IC50 [10],IC50 (NAMALVA),Kd [12],Kd (Protein polybromo-1),also measured
C/C=C/Cn1cc(-c2cc(OC)c(C(=O)N3CCOCC3)cc2OC)c2cc(C)[nH]c2c1=O,-1%,> 10 µM,3%,2 µM,> 10 µM,2 µM,2 µM,2 µM,2 µM,2 µM,2 µM,1.5%,2 µM,2 µM,2 µM,2 µM,2 µM,2 µM,> 10 µM,> 10 µM,IC50 (OPM-2): 2 µM; IC50 (HCC515): 2 µM; Activity (Rattus norvegicus): 17%; Activity [11]: 1%; IC50 (DV-90): 2 µM; IC50 [13]: 2 µM; Activity [14]: 6%; IC50 (BJAB): 2 µM; IC50 (LCLC-103H cell line): 2 µM; inhibition (Homo sapiens): -9.5%; IC50 (CAL-51): 2 µM; IC50 (IGR-37 cell line): 2 µM; IC50 (COLO 205): 2 µM; IC50 (CAL-12T): 2 µM; IC50 (UMC-11): 2 µM; IC50 [15]: 2 µM
C/C=C/Cn1cc(-c2ccc(C(C)(C)O)cc2OC)c2cc[nH]c2c1=O,1%,2.6 µM,2%,20 µM,0.83 µM,20 µM,20 µM,20 µM,9.85 µM,20 µM,20 µM,0.5%,20 µM,20 µM,20 µM,20 µM,20 µM,20 µM,> 10 µM,7.6 µM,IC50 (OPM-2): 13.7 µM; IC50 (HCC515): 20 µM; Activity (Rattus norvegicus): 12%; Activity [11]: 1%; IC50 (DV-90): 20 µM; IC50 [13]: 20 µM; Activity [14]: 11%; IC50 (BJAB): 20 µM; IC50 (LCLC-103H cell line): 20 µM; inhibition (Homo sapiens): -4%; IC50 (CAL-51): 20 µM; IC50 (IGR-37 cell line): 20 µM; IC50 (COLO 205): 20 µM; IC50 (CAL-12T): 20 µM; IC50 (UMC-11): 20 µM; IC50 [15]: 20 µM
C/C=C/Cn1cc(-c2ccc(C(=O)N3CCOCC3)cc2)c2cc[nH]c2c1=O,-8%,3.5 µM,-0.9%,20 µM,2.5 µM,20 µM,20 µM,20 µM,20 µM,20 µM,20 µM,2.8%,20 µM,20 µM,20 µM,20 µM,20 µM,20 µM,> 10 µM,> 10 µM,IC50 (OPM-2): 10 µM; IC50 (HCC515): 20 µM; Activity (Rattus norvegicus): 11%; Activity [11]: 0%; IC50 (DV-90): 20 µM; IC50 [13]: 20 µM; Activity [14]: 7%; IC50 (BJAB): 16.5 µM; IC50 (LCLC-103H cell line): 20 µM; inhibition (Homo sapiens): 25.3%; IC50 (CAL-51): 20 µM; IC50 (IGR-37 cell line): 20 µM; IC50 (COLO 205): 20 µM; IC50 (CAL-12T): 20 µM; IC50 (UMC-11): 20 µM; IC50 [15]: 20 µM
C/C=C/Cn1cc(-c2cc(OC)c(C(C)(C)O)cc2OC)c2cc(C)[nH]c2c1=O,,6.6 µM,,,2.1 µM,,,,,,,,,,,,,,> 10 µM,> 10 µM,
